Experimental data published in the supplement of paper PMC4862054.

Columns and labels:
Conditions in all cases: incubation time: 72 h
[1] = test system: HCC1143; assay: normalised response (% of control), CellTiter-Glo; higher = more viable cells (100 = DMSO, 0 = benzethonium chloride kill control)
How it was run: (§1)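 Breast cancer cell lines, seeded at 20 µl suspension per well, were incubated for 72 h in 384-well plates containing compound at 5 concentrations. These concentrations rose in 10-fold steps over a 10,000-fold range set for each compound. CellTox Green fluorescence (485/520 nm) was read, then CellTiter-Glo luminescence after 10 min at room temperature, and each plate was normalised to 0.1 % DMSO (100) and a positive kill control (0). Values are normalised signals, each at one concentration.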

[2] = test system: BT-474; assay: as above
How it was run: as §1

[3] = test system: Hs578T; assay: as above
How it was run: as §1

[4] = test system: MCF-10A; assay: as above
How it was run: as §1

[5] = test system: MDA-MB-231; assay: as above
How it was run: as §1

[6] = test system: MDA-MB-453; assay: as above
How it was run: as §1

[7] = test system: CAL-148; assay: as above
How it was run: as §1

[8] = test system: CAL-51; assay: as above
How it was run: as §1

[9] = test system: HCC1937; assay: as above
How it was run: as §1

[10] = test system: HDQ-P1; assay: as above
How it was run: as §1

[11] = test system: MFM-223; assay: as above
How it was run: as §1

[12] = test system: MDA-MB-436; assay: as above
How it was run: as §1

[13] = test system: HCC1599; assay: as above
How it was run: as §1

[14] = test system: BT-549; assay: as above
How it was run: as §1

[15] = test system: CAL-120; assay: as above
How it was run: as §1

[16] = test system: DU-4475; assay: as above
How it was run: as §1

[17] = test system: CAL-85-1; assay: as above
How it was run: as §1

[18] = test system: MDA-MB-468; assay: as above
How it was run: as §1

[19] = test system: SK-BR-3; assay: as above
How it was run: as §1

[20] = test system: HCC1143; assay: normalised response (% of control), CellTox Green; higher = less cell death (100 = DMSO, 0 = benzethonium chloride kill control)
How it was run: as §1

[21] = test system: BT-474; assay: as above
How it was run: as §1

[22] = test system: Hs578T; assay: as above
How it was run: as §1

[23] = test system: MCF-10A; assay: as above
How it was run: as §1

[24] = test system: MDA-MB-231; assay: as above
How it was run: as §1

[25] = test system: MDA-MB-453; assay: as above
How it was run: as §1

[26] = test system: CAL-148; assay: as above
How it was run: as §1

[27] = test system: CAL-51; assay: as above
How it was run: as §1

[28] = test system: HCC1937; assay: as above
How it was run: as §1

[29] = test system: HDQ-P1; assay: as above
How it was run: as §1

[30] = test system: MFM-223; assay: as above
How it was run: as §1

[31] = test system: MDA-MB-436; assay: as above
How it was run: as §1

[32] = test system: HCC1599; assay: as above
How it was run: as §1

[33] = test system: BT-549; assay: as above
How it was run: as §1

[34] = test system: CAL-120; assay: as above
How it was run: as §1

[35] = test system: DU-4475; assay: as above
How it was run: as §1

[36] = test system: CAL-85-1; assay: as above
How it was run: as §1

[37] = test system: MDA-MB-468; assay: as above
How it was run: as §1

SMILES	normalised response [1]	normalised response [2]	normalised response [3]	normalised response [4]	normalised response [5]	normalised response [6]	normalised response [7]	normalised response [8]	normalised response [9]	normalised response [10]	normalised response [11]	normalised response [12]	normalised response [13]	normalised response [14]	normalised response [15]	normalised response [16]	normalised response [17]	normalised response [18]	normalised response [19]	normalised response [20]	normalised response [21]	normalised response [22]	normalised response [23]	normalised response [24]	normalised response [25]	normalised response [26]	normalised response [27]	normalised response [28]	normalised response [29]	normalised response [30]	normalised response [31]	normalised response [32]	normalised response [33]	normalised response [34]	normalised response [35]	normalised response [36]	normalised response [37]
S=P(N1CC1)(N1CC1)N1CC1 [Thio-TEPA] (5000 nM)	96.1%	94.4%	108%	100%	96.2%	109%	93%	68.9%	96.4%	99.5%	105%	97.4%	112%	91.7%	96.5%	102%	97.2%	100%	105%	62.1%	100%	85.2%	109%	109%	101%	102%	29.6%	109%	96%	98.8%	94.6%	93.5%	109%	100%	99.2%	95.8%	
CO[C@H]1C[C@@H]2CC[C@@H](C)[C@@](O)(O2)C(=O)C(=O)N2CCCC[C@H]2C(=O)O[C@H]([C@H](C)C[C@@H]2CC[C@@H](OP(C)(C)=O)[C@H](OC)C2)CC(=O)[C@H](C)/C=C(\C)[C@@H](O)[C@@H](OC)C(=O)[C@H](C)C[C@H](C)/C=C/C=C/C=C/1C [Ridaforolimus] (10 nM)	65%	89.1%	61.6%	89.5%	87.1%	63.6%	64.5%	59.9%	68.4%	81.2%	72.8%	76%	109%	56%	66.3%	77%	69.9%	59.8%	62.6%	73%	99.1%	49.6%	109%	122%	104%	93.3%	110%	110%		100%	88.2%	103%	134%	91.5%	99.8%	94.9%	124%
COc1cc(O)c2c(c1)/C=C/C[C@H](O)[C@H](O)C(=O)/C=C\C[C@H](C)OC2=O [(5Z)-7-Oxozeaenol] (1000 nM)	96.9%	71.5%	91.1%	56.9%	72%	118%	79.5%	106%	76.1%	71.5%	90.4%	81.3%	92%	40.3%	94.2%	8.27%	42.8%	56.5%	115%	129%	99%	64.6%	103%	57.4%	103%	15.5%	115%	-12.2%	66.1%		112%	103%	79.5%	102%	74.4%	35.6%	140%
CNC(=O)c1ccc(N2C(=S)N(c3ccc(C#N)c(C(F)(F)F)c3)C(=O)C2(C)C)cc1F [Enzalutamide] (1000 nM)	101%	102%	106%	107%	95.7%	95.7%	104%	74.1%	96.8%	95.9%	97.7%	92.8%	107%	96.8%	95.9%	103%	91.7%	92.6%	100%	117%	96%	96.4%	107%	90.5%	111%	65.4%	93.4%		54.2%		89.5%	90.2%	87%	104%	107%	105%	131%
COC(=O)c1ccc2c(c1)NC(=O)/C2=C(\Nc1ccc(N(C)C(=O)CN2CCN(C)CC2)cc1)c1ccccc1 [Nintedanib] (1000 nM)	98.8%	101%	93.4%	59.3%	92%	96.2%	94.6%	83.2%	89.4%	69.1%	59.2%	99.4%	98.9%	83.5%	85.2%	87.6%	97.2%	96.8%	86%		97.9%	94.1%	105%	102%	103%		105%	80.7%	96%	89.4%	107%	98.1%	111%	101%	98.5%	107%	162%
COc1cc2/c(=N/c3ccc(Br)cc3F)nc[nH]c2cc1OCC1CCN(C)CC1 [Vandetanib] (100 nM)	86.2%	84.7%	94.1%	57.3%	89.2%	88%	96.5%	83.3%	90.6%	83%	82.5%	91.2%	102%	89%	94.4%	90.1%	99.3%	83.5%	77.7%	85.6%	98%	92%	103%	85.4%	90.5%	88.6%	70.7%			98.8%	84.2%	87%	102%	83%	92%	98.6%	67.6%
S=P(N1CC1)(N1CC1)N1CC1 [Thio-TEPA] (5 nM)	96.2%	93.2%	106%	101%	102%	108%	90.4%	64.7%	93.8%	93.4%	102%	78.2%	104%	94.9%	95.4%	98.6%	99.2%	91.2%	105%																		
CNC(=O)c1ccc(N2C(=S)N(c3ccc(C#N)c(C(F)(F)F)c3)C(=O)C23CCC3)cc1F [RD162] (1000 nM)	98%	95.3%	104%	102%	101%	98.9%	103%	115%	94.6%	94.9%	102%	98.2%	126%	93.7%	99%	103%	96.7%	97.3%	110%		96.8%	85.7%	120%	108%	90.8%	102%	107%	83.1%	114%		111%	96%	101%	101%	104%	118%	96.5%
CNC(=O)c1cccc(-c2ccc3c(N4CCOC[C@@H]4C)nc(N4CCOC[C@@H]4C)nc3n2)c1 [AZD2014] (10 nM)	99.8%	99.5%	104%	111%	97.7%	101%	106%	105%	101%	98.8%	106%	98.5%	115%	96.8%	93.5%	104%	97.6%	104%	99%																		
COc1cc2/c(=N/c3ccc(Br)cc3F)nc[nH]c2cc1OCC1CCN(C)CC1 [Vandetanib] (0.1 nM)	88.7%	89.3%	98.6%	72.8%	97.3%	93.6%	76.8%	115%	88.2%	93.2%	85.2%	80.6%	82.4%	105%	90.8%	91%	90.3%	93.2%	78%																		
